# Assay results as given in PMC6402191 (Clinical and Translational Science, 2017).
# “And” between values parts separate entries of the source, which are not always exact repeats. Identical values can stand only once.
# Tests used:
# OCT2 = biological target: T1, OCT2 (Homo sapiens, UniProt O15244); experiment: Baricitinib substrate study in OCT2-transfected HEK-PEAK cells; format: in vitro ADME
# T1 sequence (O15244 1-555): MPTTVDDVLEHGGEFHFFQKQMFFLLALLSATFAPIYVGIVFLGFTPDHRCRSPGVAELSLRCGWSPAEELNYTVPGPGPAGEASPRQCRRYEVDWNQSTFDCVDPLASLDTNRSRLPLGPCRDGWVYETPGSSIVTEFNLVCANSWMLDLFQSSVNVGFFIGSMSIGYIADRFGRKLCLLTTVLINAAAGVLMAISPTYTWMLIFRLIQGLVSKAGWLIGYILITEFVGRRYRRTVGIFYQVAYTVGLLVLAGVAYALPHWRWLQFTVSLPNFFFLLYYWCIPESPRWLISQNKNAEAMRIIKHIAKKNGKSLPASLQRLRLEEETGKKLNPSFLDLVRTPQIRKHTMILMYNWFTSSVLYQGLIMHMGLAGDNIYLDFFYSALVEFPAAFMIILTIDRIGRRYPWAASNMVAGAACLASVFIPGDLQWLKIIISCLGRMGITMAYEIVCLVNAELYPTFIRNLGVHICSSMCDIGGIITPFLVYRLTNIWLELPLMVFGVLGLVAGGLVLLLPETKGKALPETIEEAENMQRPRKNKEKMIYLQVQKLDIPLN
# BCRP = biological target: T2, BCRP (Homo sapiens, UniProt Q9UNQ0); experiment: Bidirectional transport of baricitinib in MDCK-BCRP cells; format: in vitro ADME
# T2 sequence (Q9UNQ0 1-655): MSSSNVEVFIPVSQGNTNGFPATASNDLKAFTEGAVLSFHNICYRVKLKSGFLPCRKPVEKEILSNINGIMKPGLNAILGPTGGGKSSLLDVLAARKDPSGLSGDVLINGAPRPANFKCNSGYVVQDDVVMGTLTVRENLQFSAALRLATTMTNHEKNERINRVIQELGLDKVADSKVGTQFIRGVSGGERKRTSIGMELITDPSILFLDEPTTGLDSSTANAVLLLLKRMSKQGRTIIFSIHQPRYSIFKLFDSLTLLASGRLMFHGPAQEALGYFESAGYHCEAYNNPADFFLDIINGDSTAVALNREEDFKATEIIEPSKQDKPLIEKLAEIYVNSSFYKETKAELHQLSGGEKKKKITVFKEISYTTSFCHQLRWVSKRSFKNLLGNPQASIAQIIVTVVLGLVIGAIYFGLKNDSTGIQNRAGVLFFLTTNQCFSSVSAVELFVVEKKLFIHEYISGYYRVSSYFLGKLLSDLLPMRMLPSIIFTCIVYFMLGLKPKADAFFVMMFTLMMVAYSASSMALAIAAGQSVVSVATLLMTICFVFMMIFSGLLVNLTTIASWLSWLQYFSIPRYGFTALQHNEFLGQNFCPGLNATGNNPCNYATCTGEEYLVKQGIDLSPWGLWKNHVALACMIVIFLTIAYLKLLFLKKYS
# Plasma protein binding = format: in vitro ADME; details: human
# P-gp = P-gp (Homo sapiens, UniProt P08183); experiment: Bidirectional transport of baricitinib in MDCK-MDR1 cells; format: in vitro ADME
# Chain of P-gp (P08183 whole entry): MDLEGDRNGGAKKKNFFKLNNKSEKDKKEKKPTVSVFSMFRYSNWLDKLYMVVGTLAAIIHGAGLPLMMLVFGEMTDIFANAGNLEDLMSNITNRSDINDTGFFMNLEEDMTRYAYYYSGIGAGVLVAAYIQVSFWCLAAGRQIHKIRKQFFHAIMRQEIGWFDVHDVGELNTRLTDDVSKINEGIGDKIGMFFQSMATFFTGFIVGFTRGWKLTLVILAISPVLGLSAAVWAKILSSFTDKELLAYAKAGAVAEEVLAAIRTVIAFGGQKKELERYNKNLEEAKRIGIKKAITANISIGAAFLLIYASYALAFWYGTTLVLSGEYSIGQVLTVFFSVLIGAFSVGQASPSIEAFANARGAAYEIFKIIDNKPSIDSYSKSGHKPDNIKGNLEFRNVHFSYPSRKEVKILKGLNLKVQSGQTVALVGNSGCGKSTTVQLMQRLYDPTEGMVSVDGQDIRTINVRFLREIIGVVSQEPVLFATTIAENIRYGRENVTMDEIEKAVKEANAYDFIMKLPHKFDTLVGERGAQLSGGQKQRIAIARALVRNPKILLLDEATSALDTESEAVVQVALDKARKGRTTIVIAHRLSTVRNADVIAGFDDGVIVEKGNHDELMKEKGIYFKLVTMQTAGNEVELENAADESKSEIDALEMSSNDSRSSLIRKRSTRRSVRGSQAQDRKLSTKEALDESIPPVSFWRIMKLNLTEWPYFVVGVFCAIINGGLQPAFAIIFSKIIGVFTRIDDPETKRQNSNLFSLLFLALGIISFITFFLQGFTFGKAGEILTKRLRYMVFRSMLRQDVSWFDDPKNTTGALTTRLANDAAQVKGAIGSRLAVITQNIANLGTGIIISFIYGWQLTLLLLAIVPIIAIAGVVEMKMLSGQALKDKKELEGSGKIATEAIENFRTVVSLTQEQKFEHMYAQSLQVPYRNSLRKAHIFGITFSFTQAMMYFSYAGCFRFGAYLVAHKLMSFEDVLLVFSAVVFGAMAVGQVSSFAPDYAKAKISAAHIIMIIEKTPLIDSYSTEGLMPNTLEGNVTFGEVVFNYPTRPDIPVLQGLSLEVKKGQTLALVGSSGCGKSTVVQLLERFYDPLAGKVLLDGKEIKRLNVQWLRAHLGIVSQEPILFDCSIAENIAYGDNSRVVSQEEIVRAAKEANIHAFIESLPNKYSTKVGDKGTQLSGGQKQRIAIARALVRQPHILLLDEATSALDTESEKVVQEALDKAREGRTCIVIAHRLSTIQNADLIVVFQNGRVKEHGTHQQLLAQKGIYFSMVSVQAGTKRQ
# [1] = Pharmacokinetic input parameters of the PBPK models; format: in vivo, human; details: fitted to match clinical data
# OAT3 = biological target: T3, OAT3 (Homo sapiens, UniProt Q8TCC7); experiment: Uptake of baricitinib into OAT3-transfected HEK-PEAK cells; format: in vitro ADME
# T3 sequence (Q8TCC7 1-542): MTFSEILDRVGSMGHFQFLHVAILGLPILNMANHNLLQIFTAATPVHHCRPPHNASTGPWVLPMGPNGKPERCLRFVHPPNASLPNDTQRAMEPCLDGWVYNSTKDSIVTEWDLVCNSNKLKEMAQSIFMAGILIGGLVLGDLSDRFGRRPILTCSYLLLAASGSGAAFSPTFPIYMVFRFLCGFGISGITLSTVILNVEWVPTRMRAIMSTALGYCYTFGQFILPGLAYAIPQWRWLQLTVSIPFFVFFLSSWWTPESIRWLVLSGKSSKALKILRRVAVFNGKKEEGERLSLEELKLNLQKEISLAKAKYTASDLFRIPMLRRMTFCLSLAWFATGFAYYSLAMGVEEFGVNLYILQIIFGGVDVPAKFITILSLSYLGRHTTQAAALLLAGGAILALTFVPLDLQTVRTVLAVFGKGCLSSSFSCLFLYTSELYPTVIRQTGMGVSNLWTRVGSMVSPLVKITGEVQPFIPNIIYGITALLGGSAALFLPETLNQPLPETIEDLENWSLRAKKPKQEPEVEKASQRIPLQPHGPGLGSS
# OATP1B3 = biological target: T4, OATP1B3 (Homo sapiens, UniProt Q9NPD5); experiment: Baricitinib substrate study in OATP1B3-transfected HEK-PEAK cells; format: in vitro ADME
# T4 sequence (Q9NPD5 1-702): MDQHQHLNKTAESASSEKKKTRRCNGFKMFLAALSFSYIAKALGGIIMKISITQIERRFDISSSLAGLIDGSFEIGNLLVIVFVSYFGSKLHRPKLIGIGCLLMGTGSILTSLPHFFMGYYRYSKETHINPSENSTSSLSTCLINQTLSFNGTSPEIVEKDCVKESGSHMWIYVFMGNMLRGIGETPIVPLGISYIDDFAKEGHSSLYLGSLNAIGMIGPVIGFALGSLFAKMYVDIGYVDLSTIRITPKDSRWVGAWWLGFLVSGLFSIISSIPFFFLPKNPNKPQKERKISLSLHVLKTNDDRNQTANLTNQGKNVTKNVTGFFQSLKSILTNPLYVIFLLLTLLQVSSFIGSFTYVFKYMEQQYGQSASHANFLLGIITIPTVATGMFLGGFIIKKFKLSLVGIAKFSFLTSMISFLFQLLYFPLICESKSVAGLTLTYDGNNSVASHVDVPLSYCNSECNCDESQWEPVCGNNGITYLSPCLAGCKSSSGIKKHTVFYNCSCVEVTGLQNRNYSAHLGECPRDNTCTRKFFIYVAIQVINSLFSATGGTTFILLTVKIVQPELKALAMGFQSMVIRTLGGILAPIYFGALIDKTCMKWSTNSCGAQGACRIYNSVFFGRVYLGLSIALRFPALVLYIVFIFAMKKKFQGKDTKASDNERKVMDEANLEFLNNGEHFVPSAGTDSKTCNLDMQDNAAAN
# [2] = cited from earlier work
smiles,measurement,setting,value
CCS(=O)(=O)N1CC(CC#N)(n2cc(-c3ncnc4[nH]ccc34)cn2)C1 [Baricitinib],OCT2 substrate,OCT2,not a substrate
same,BCRP substrate,BCRP,substrate of BCRP
same,Papp A→B at 5 µM,BCRP; dog,0.83 ×10⁻⁶ cm/s
same,Papp B→A at 5 µM,BCRP; dog,10.1 ×10⁻⁶ cm/s
same,fraction unbound,Plasma protein binding,0.5
same,P-gp substrate,P-gp,P‐gp substrate
same,Papp at 5 μM,"P-gp; dog, MDCK",6.6 ×10⁻⁶ cm/s
same,Papp A→B at 5 µM,"P-gp; dog, MDCK-MDR1",0.9 ×10⁻⁶ cm/s
same,Papp B→A at 5 µM,"P-gp; dog, MDCK-MDR1",35.2 ×10⁻⁶ cm/s
same,ka (first-order absorption rate constant),[1],1.2 h^‐1
same,OAT3 substrate,OAT3,substrate of OAT3
same,Uptake into OAT3-transfected cells relative to control cells,OAT3; 1-min incubation,approximately double
same,OAT3 Vmax,OAT3; PBPK input,70.76 pmol/min/10^6 cells
same,OAT3 Vmax,OAT3; average of two experiments,176.9 pmol/min/mg protein
same,OAT3 Vmax (individual experiments),OAT3; each of two separate experiments,164.3 ± 7.97 pmol/min/mg protein and 189.5 ± 27.10 pmol/min/mg protein
same,OATP1B3 substrate,OATP1B3,not a substrate
same,eliminated unchanged in urine,[2],70 % of dose
same,renal clearance,[2],~11 L/h
same,decrease in renal secretory clearance with cyclosporine,[2]; single 600 mg dose of cyclosporine,30%
